In patent US9132161B2:

How the values were obtained:
[1] = tested on: TNF-RE tkLuc; experiment: Antiestrogen effect on TNF-RE tkLuc (Example 2); format: cell-based, human; conditions: for effect on the repression induced by E2: TNF-RE tkLuc; for activation of TNF-RE tkLuc: antiestrogens, in contrast to E2
[2] = molecular target: T1, ERβ (Homo sapiens, UniProt Q92731); experiment: ERE-tk-Luc luciferase assay in U2OS cells, ERβ; format: cell-based; parameters: expressed in transfected cells; host or cells: U2OS (human osteosarcoma), electroporated; conditions: competition with herb 6, U2OS cells, FIG. 6
[3] = tested on: postmenopausal women who have osteoporosis; conditions: median follow-up of 40 months, cited from earlier work
[4] = molecular target: T1, ERβ; conditions: in the presence of ERβ
[5] = molecular target: T1, ERβ; experiment: TNF-RE tkLuc repression in U2OS cells, ERβ; format: cell-based; parameters: expressed in transfected cells
[6] = tested on: women with estrogen receptor-positive breast cancer; conditions: five years of therapy; cited from earlier work
[7] = tested on: women considered to be at high risk for breast cancer; conditions: cited from earlier work

T1 sequence (Q92731 whole entry): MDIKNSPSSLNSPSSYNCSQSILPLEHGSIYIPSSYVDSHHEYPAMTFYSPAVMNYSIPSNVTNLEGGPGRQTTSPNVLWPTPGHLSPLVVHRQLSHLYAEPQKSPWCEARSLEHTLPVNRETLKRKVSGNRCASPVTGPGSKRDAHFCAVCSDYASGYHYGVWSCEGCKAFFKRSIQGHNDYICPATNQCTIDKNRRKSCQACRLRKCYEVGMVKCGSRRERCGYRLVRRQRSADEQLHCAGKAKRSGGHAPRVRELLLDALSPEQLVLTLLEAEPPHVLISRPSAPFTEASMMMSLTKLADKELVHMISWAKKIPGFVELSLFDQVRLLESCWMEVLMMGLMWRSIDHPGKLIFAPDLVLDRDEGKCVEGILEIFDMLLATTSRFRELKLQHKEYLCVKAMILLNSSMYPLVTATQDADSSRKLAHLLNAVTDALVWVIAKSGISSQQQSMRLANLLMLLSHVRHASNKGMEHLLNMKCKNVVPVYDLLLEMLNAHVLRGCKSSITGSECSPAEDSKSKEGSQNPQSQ

Row | Compound | effect on the repression induced by E2 [1] | activation of TNF-RE tkLuc [1] | effect on herb 6 stimulation of the ERE with ERβ [2] | cases of breast cancer in the treatment group ([3]; among 5129 women) | RR of breast cancer versus placebo [3] | repression of TNF-α activation of TNF-RE tkLuc [4] | repression of TNF-α activation of TNF-RE [5] | reduction of mortality from breast cancer [6] | reduction of the risk of recurrences [6] | reduction of the risk of primary invasive breast cancer [7]
1 | O=C(c1ccc(OCCN2CCCCC2)cc1)c1c(-c2ccc(O)cc2)sc2cc(O)ccc12 [raloxifene] | abolished the repression induced by E2 | 2 fold | inhibited | 13 cases | 0.24 | – | – | – | – | –
2 | C[C@]12CC[C@@H]3c4ccc(O)cc4CC[C@H]3[C@@H]1CC[C@@H]2O [E2, estradiol] | – | – | – | – | – | 60-80% | 100% | – | – | –
3 | CC/C(=C(\c1ccccc1)c1ccc(OCCN(C)C)cc1)c1ccccc1 [tamoxifen] | abolished the repression induced by E2 | 2 fold | – | – | – | – | – | 22% | 42% | 49%
4 | C[C@]12CC[C@@H]3c4ccc(O)cc4C[C@@H](CCCCCCCCC[S+]([O-])CCCC(F)(F)C(F)(F)F)[C@H]3[C@@H]1CC[C@@H]2O (some centres unmarked) [ICI 182, 780] | abolished the repression induced by E2 | 2 fold | – | – | – | – | – | – | – | –
